# Measured values from patent publication US6481154B1, “Method of large-scale propagation of trees of genus Swietenia” (Sumitomo Forestry Co., Ltd., priority 2000, dated 2002).
# What was measured:
# [1] = tested on: single shoots of Swietenia macrophylla; experiment: Rooting condition (1): modified B5 medium for 3 months; assay type: cell-based
# Experimental: (§1) A large number of shoots obtained in (4) were cut to single shoots which were cultured in the following procedures:
# (1) The single shoots were cultured on a modified B5 medium containing 0 to 10.0 mg/l of IBA for 3 months, while transplanting the shoots to a fresh medium of the same composition every month.
# (§2) All the above (1)-(4) cultures were conducted under conditions wherein a temperature was 26±2° C., a humidity was 60 to 90% and a light intensity was 3,000 to 9,000 Lux. Further, all the modified media in the above (1)-(4) contained 2.8 g/l of gelright.
# [2] = tested on: single shoots of Swietenia macrophylla; experiment: Rooting conditions (4): modified B5, then modified MS, then modified B5, one month each; assay type: cell-based
# Experimental: as §1
# (4) The single shoots were cultured on a modified B5 medium containing 0 to 10.0 mg/l of IBA for one month, then on a modified MS medium containing 0 to 10.0 mg/l of IBA for one month and further on a modified B5 medium containing 0 to 10.0 mg/l of IBA for one month.
# as §2
smiles,measurement,setting,value
"O=C(O)CCCc1c[nH]c2ccccc12 [IBA, 3-indole butyric acid]",Rooting rate (%) For first one month,[1]; IBA 0.1 mg/l,0.0%
same,Rooting rate (%) For second one month,[1]; IBA 0.1 mg/l,0.0%
same,Rooting rate (%) For third one month,[1]; IBA 0.1 mg/l,0.0%
same,Withering rate (%) For first one month,[1]; IBA 0.1 mg/l,84.6%
same,Withering rate (%) For second one month,[1]; IBA 0.1 mg/l,100.0%
same,Withering rate (%) For third one month,[1]; IBA 0.1 mg/l,100.0%
same,Rooting rate (%) For first one month,[1]; IBA 1.0 mg/l,0.0%
same,Rooting rate (%) For second one month,[1]; IBA 1.0 mg/l,3.7%
same,Rooting rate (%) For third one month,[1]; IBA 1.0 mg/l,3.7%
same,Withering rate (%) For first one month,[1]; IBA 1.0 mg/l,14.8%
same,Withering rate (%) For second one month,[1]; IBA 1.0 mg/l,55.6%
same,Withering rate (%) For third one month,[1]; IBA 1.0 mg/l,96.3%
same,Rooting rate (%) For first one month,[1]; IBA 2.0 mg/l,0.0%
same,Rooting rate (%) For second one month,[1]; IBA 2.0 mg/l,6.7%
same,Rooting rate (%) For third one month,[1]; IBA 2.0 mg/l,6.7%
same,Withering rate (%) For first one month,[1]; IBA 2.0 mg/l,13.3%
same,Withering rate (%) For second one month,[1]; IBA 2.0 mg/l,40.0%
same,Withering rate (%) For third one month,[1]; IBA 2.0 mg/l,73.3%
same,Rooting rate (%) For first one month,[1]; IBA 2.5 mg/l,0.0%
same,Rooting rate (%) For second one month,[1]; IBA 2.5 mg/l,18.5%
same,Rooting rate (%) For third one month,[1]; IBA 2.5 mg/l,18.5%
same,Withering rate (%) For first one month,[1]; IBA 2.5 mg/l,11.1%
same,Withering rate (%) For second one month,[1]; IBA 2.5 mg/l,40.7%
same,Withering rate (%) For third one month,[1]; IBA 2.5 mg/l,66.7%
same,Rooting rate (%) For first one month,[1]; IBA 3.0 mg/l,0.0%
same,Rooting rate (%) For second one month,[1]; IBA 3.0 mg/l,0.0%
same,Rooting rate (%) For third one month,[1]; IBA 3.0 mg/l,0.0%
same,Withering rate (%) For first one month,[1]; IBA 3.0 mg/l,26.9%
same,Withering rate (%) For second one month,[1]; IBA 3.0 mg/l,57.7%
same,Withering rate (%) For third one month,[1]; IBA 3.0 mg/l,73.1%
same,Rooting rate (%) For first one month,[1]; IBA 4.0 mg/l,0.0%
same,Rooting rate (%) For second one month,[1]; IBA 4.0 mg/l,4.0%
same,Rooting rate (%) For third one month,[1]; IBA 4.0 mg/l,4.0%
same,Withering rate (%) For first one month,[1]; IBA 4.0 mg/l,40.0%
same,Withering rate (%) For second one month,[1]; IBA 4.0 mg/l,72.0%
same,Withering rate (%) For third one month,[1]; IBA 4.0 mg/l,100.0%
same,Rooting rate (%) For first one month,[1]; IBA 5.0 mg/l,0.0%
same,Rooting rate (%) For second one month,[1]; IBA 5.0 mg/l,0.0%
same,Rooting rate (%) For third one month,[1]; IBA 5.0 mg/l,0.0%
same,Withering rate (%) For first one month,[1]; IBA 5.0 mg/l,53.8%
same,Withering rate (%) For second one month,[1]; IBA 5.0 mg/l,84.6%
same,Withering rate (%) For third one month,[1]; IBA 5.0 mg/l,100.0%
same,Rooting rate (%) For first one month,[1]; IBA 10.0 mg/l,0.0%
same,Rooting rate (%) For second one month,[1]; IBA 10.0 mg/l,0.0%
same,Rooting rate (%) For third one month,[1]; IBA 10.0 mg/l,0.0%
same,Withering rate (%) For first one month,[1]; IBA 10.0 mg/l,80.8%
same,Withering rate (%) For second one month,[1]; IBA 10.0 mg/l,96.2%
same,Withering rate (%) For third one month,[1]; IBA 10.0 mg/l,100.0%
same,Rooting rate (%) For first one month,[2]; IBA 0.1 mg/l,0.0%
same,Rooting rate (%) For second one month,[2]; IBA 0.1 mg/l,0.0%
same,Rooting rate (%) For third one month,[2]; IBA 0.1 mg/l,0.0%
same,Withering rate (%) For first one month,[2]; IBA 0.1 mg/l,84.6%
same,Withering rate (%) For second one month,[2]; IBA 0.1 mg/l,88.5%
same,Withering rate (%) For third one month,[2]; IBA 0.1 mg/l,100.0%
same,Rooting rate (%) For first one month,[2]; IBA 1.0 mg/l,0.0%
same,Rooting rate (%) For second one month,[2]; IBA 1.0 mg/l,0.0%
same,Rooting rate (%) For third one month,[2]; IBA 1.0 mg/l,10.0%
same,Withering rate (%) For first one month,[2]; IBA 1.0 mg/l,10.0%
same,Withering rate (%) For second one month,[2]; IBA 1.0 mg/l,50.0%
same,Withering rate (%) For third one month,[2]; IBA 1.0 mg/l,70.0%
same,Rooting rate (%) For first one month,[2]; IBA 2.0 mg/l,0.0%
same,Rooting rate (%) For second one month,[2]; IBA 2.0 mg/l,10.0%
same,Rooting rate (%) For third one month,[2]; IBA 2.0 mg/l,10.0%
same,Withering rate (%) For first one month,[2]; IBA 2.0 mg/l,0.0%
same,Withering rate (%) For second one month,[2]; IBA 2.0 mg/l,40.0%
same,Withering rate (%) For third one month,[2]; IBA 2.0 mg/l,50.0%
same,Rooting rate (%) For first one month,[2]; IBA 2.5 mg/l,0.0%
same,Rooting rate (%) For second one month,[2]; IBA 2.5 mg/l,30.0%
same,Rooting rate (%) For third one month,[2]; IBA 2.5 mg/l,50.0%
same,Withering rate (%) For first one month,[2]; IBA 2.5 mg/l,0.0%
same,Withering rate (%) For second one month,[2]; IBA 2.5 mg/l,40.0%
same,Withering rate (%) For third one month,[2]; IBA 2.5 mg/l,40.0%
same,Rooting rate (%) For first one month,[2]; IBA 3.0 mg/l,0.0%
same,Rooting rate (%) For second one month,[2]; IBA 3.0 mg/l,10.0%
same,Rooting rate (%) For third one month,[2]; IBA 3.0 mg/l,20.0%
same,Withering rate (%) For first one month,[2]; IBA 3.0 mg/l,0.0%
same,Withering rate (%) For second one month,[2]; IBA 3.0 mg/l,60.0%
same,Withering rate (%) For third one month,[2]; IBA 3.0 mg/l,70.0%
same,Rooting rate (%) For first one month,[2]; IBA 4.0 mg/l,0.0%
same,Rooting rate (%) For second one month,[2]; IBA 4.0 mg/l,0.0%
same,Rooting rate (%) For third one month,[2]; IBA 4.0 mg/l,0.0%
same,Withering rate (%) For first one month,[2]; IBA 4.0 mg/l,40.0%
same,Withering rate (%) For second one month,[2]; IBA 4.0 mg/l,70.0%
same,Withering rate (%) For third one month,[2]; IBA 4.0 mg/l,100.0%
same,Rooting rate (%) For first one month,[2]; IBA 5.0 mg/l,0.0%
same,Rooting rate (%) For second one month,[2]; IBA 5.0 mg/l,0.0%
same,Rooting rate (%) For third one month,[2]; IBA 5.0 mg/l,0.0%
same,Withering rate (%) For first one month,[2]; IBA 5.0 mg/l,50.0%
same,Withering rate (%) For second one month,[2]; IBA 5.0 mg/l,90.0%
same,Withering rate (%) For third one month,[2]; IBA 5.0 mg/l,100.0%
same,Rooting rate (%) For first one month,[2]; IBA 10.0 mg/l,0.0%
same,Rooting rate (%) For second one month,[2]; IBA 10.0 mg/l,0.0%
same,Rooting rate (%) For third one month,[2]; IBA 10.0 mg/l,0.0%
same,Withering rate (%) For first one month,[2]; IBA 10.0 mg/l,70.0%
same,Withering rate (%) For second one month,[2]; IBA 10.0 mg/l,100.0%
same,Withering rate (%) For third one month,[2]; IBA 10.0 mg/l,100.0%
